Measured values from patent US20260297081A1, “COMPOUNDS AND METHODS OF TREATING CANCERS” (Cullgen Inc., priority 2023, published 2026).

Molecular target: CDK4 (Homo sapiens, UniProt P11802+Q16531)
Test: CDK4 percentage degradation in Calu-1 cells (Table 6)
Assay type: cell-based
Design: Cells that express cyclin D1-3 and CDK4/6 proteins were treated with heterobifunctional compounds; endogenous in cells; host or cells: Calu-1
Conditions: 16 hours; for inhibition at 0.04 µM: 40 nM; for inhibition at 0.2 µM: 200 nM
How it was run: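 Calu-1 cells exposed to heterobifunctional compounds at 40 nM or 200 nM for 16 h. Cyclin D1 and CDK4 levels measured by Western blot of RIPA lysates (BCA-normalised loading), bands quantified by densitometry and expressed as percentage degradation.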

Chain of CDK4 (P11802 2-303 limits assumed): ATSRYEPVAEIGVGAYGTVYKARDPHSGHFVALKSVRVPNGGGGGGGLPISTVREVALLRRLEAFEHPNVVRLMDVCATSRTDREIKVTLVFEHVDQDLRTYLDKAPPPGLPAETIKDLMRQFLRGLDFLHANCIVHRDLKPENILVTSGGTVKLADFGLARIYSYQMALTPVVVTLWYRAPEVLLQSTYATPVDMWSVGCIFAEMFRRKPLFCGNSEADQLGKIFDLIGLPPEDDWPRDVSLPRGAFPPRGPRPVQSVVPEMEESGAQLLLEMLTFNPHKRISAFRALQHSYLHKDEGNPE
Chain of CDK4 (P24385 whole entry partner): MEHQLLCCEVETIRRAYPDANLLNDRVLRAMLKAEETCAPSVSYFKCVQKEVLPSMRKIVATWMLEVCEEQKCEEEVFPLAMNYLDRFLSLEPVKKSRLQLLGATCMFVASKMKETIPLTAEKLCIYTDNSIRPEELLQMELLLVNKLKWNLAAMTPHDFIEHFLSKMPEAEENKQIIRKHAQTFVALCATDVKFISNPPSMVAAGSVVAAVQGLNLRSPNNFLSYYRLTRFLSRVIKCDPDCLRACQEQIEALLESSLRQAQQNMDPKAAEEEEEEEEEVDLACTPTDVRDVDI
Chain of CDK4 (Q16531 2-1140 limits assumed): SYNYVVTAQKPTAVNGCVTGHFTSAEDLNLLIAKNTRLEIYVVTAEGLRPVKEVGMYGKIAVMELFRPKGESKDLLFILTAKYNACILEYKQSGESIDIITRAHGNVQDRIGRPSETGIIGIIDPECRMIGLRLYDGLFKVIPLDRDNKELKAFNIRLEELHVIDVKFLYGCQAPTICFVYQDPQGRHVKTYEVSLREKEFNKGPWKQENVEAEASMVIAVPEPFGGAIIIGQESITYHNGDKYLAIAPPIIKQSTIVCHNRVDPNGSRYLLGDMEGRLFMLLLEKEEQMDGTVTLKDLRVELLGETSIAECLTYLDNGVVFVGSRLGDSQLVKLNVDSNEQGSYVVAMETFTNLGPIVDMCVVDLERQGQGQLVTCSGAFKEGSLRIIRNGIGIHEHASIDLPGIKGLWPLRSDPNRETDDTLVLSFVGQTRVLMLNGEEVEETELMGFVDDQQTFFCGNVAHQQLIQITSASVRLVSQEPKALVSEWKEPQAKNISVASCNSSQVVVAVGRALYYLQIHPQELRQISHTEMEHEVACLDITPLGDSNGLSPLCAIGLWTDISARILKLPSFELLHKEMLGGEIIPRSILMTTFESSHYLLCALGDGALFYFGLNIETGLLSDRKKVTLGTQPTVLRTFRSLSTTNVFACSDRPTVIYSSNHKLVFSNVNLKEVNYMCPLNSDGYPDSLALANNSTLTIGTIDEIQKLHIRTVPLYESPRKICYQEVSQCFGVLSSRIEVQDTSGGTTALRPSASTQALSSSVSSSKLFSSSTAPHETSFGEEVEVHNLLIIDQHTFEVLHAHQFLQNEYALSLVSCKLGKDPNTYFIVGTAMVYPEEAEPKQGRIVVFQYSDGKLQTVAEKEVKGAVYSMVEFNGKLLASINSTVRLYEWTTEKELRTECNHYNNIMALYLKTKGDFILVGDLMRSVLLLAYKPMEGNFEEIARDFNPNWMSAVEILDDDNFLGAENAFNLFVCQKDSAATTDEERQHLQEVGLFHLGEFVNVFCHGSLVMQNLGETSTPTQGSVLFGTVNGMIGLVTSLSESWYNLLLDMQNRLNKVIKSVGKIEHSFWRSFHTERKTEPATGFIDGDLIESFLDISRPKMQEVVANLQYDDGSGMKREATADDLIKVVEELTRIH

**Q.** What does the source list for `CCc1ccc(C(=O)Nc2cccc(C3CC3)n2)c(NC2CC3(CC(NC(=O)CN4CCN(c5ccc(Nc6ncc7c(C)c(C(C)=O)c(=O)n(C8CCCC8)c7n6)nc5)CC4)C3)C2)n1` (stereo not drawn) [CPD-124, 2-((6-(2-(4-(6-((6-Acetyl-8-cyclopentyl-5-methyl-7-oxo-7,8-dihydropyrido[2,3-d]pyrimidin-2-yl)amino)pyridin-3-yl)piperazin-1-yl)acetamido)spiro[3.3]heptan-2-yl)amino)-N-(6-cyclopropylpyridin-2-yl)-6-ethylnicotinamide]?
**A.** inhibition at 0.04 µM: 30 to 50%; inhibition at 0.2 µM: 30 to 50%

**Q.** Which results are given for `CNc1ccc(C(=O)Nc2ccc(OC)c(C3CC3)n2)c(NC2CC3(CC(NC(=O)CN4CCN(c5ccc(Nc6ncc7c(C)c(C(C)=O)c(=O)n(C8CCCC8)c7n6)nc5)CC4)C3)C2)n1` (stereo not drawn) [CPD-125, 2-((6-(2-(4-(6-((6-Acetyl-8-cyclopentyl-5-methyl-7-oxo-7,8-dihydropyrido[2,3-d]pyrimidin-2-yl)amino)pyridin-3-yl)piperazin-1-yl)acetamido)spiro[3.3]heptan-2-yl)amino)-N-(6-cyclopropyl-5-methoxypyridin-2-yl)-6-(methylamino)nicotinamide]?
**A.** inhibition at 0.04 µM: 30 to 50%; inhibition at 0.2 µM: 30 to 50%

**Q.** What does the source list for `CNc1ccc(C(=O)Nc2cccc(C)n2)c(NC[C@H]2CC[C@H](NC(=O)CN3CCN(c4ccc(Nc5ncc6c(C)c(C(C)=O)c(=O)n(C7CCCC7)c6n5)nc4)CC3)CC2)n1` [CPD-126, 2-(((trans-4-(2-(4-(6-((6-Acetyl-8-cyclopentyl-5-methyl-7-oxo-7,8-dihydropyrido[2,3-d]pyrimidin-2-yl)amino)pyridin-3-yl)piperazin-1-yl)acetamido)cyclohexyl)methyl)amino)-6-(methylamino)-N-(6-methylpyridin-2-yl)nicotinamide]?
**A.** inhibition at 0.04 µM: < 30%; inhibition at 0.2 µM: 50 to 80%

**Q.** What does the source list for `CNc1ccc(C(=O)Nc2cc(C(F)(F)F)n(C)n2)c(NC2CC3(CC(NC(=O)CN4CCN(c5ccc(Nc6ncc7c(C)c(C(C)=O)c(=O)n(C8CCCC8)c7n6)nc5)CC4)C3)C2)n1` (stereo not drawn) [CPD-127, 2-((6-(2-(4-(6-((6-Acetyl-8-cyclopentyl-5-methyl-7-oxo-7,8-dihydropyrido[2,3-d]pyrimidin-2-yl)amino)pyridin-3-yl)piperazin-1-yl)acetamido)spiro[3.3]heptan-2-yl)amino)-N-(1-methyl-5-(trifluoromethyl)-1H-pyrazol-3-yl)-6-(methylamino)nicotinamide]?
**A.** inhibition at 0.04 µM: < 30%; inhibition at 0.2 µM: < 30%

**Q.** Which inhibition at 0.04 µM does the source give for `CNc1ccc(C(=O)Nc2ccc(F)c(C3CC3)n2)c(NC2CC3(CC(NC(=O)CN4CCN(c5ccc(Nc6ncc7c(C)c(C(C)=O)c(=O)n(C8CCCC8)c7n6)nc5)CC4)C3)C2)n1` (stereo not drawn) [CPD-128, 2-((6-(2-(4-(6-((6-Acetyl-8-cyclopentyl-5-methyl-7-oxo-7,8-dihydropyrido[2,3-d]pyrimidin-2-yl)amino)pyridin-3-yl)piperazin-1-yl)acetamido)spiro[3.3]heptan-2-yl)amino)-N-(6-cyclopropyl-5-fluoropyridin-2-yl)-6-(methylamino)nicotinamide] here?
**A.** The inhibition at 0.04 µM was 50 to 80%.

**Q.** And the inhibition at 0.2 µM?
**A.** Its inhibition at 0.2 µM is 50 to 80%.

**Q.** For `CNc1ccc(C(=O)Nc2ccc(N(C)C)nn2)c(NC2CCC(NC(=O)CN3CCN(c4ccc(Nc5ncc6c(C)c(C(C)=O)c(=O)n(C7CCCC7)c6n5)nc4)CC3)CC2)n1` (stereo not drawn) [CPD-130, 2-((4-(2-(4-(6-((6-Acetyl-8-cyclopentyl-5-methyl-7-oxo-7,8-dihydropyrido[2,3-d]pyrimidin-2-yl)amino)pyridin-3-yl)piperazin-1-yl)acetamido)cyclohexyl)amino)-N-(6-(dimethylamino)pyridazin-3-yl)-6-(methylamino)nicotinamide], which inhibition at 0.04 µM is on record?
**A.** The inhibition at 0.04 µM was 50 to 80%.

**Q.** What about the inhibition at 0.2 µM of the same compound?
**A.** Its inhibition at 0.2 µM is 50 to 80%.

**Q.** Which results are given for `CNc1ccc(C(=O)Nc2cc(C)n(C)n2)c(NC[C@H]2CC[C@H](NC(=O)CN3CCN(c4ccc(Nc5ncc6c(C)c(C(C)=O)c(=O)n(C7CCCC7)c6n5)nc4)CC3)CC2)n1` [CPD-131, 2-(((trans-4-(2-(4-(6-((6-Acetyl-8-cyclopentyl-5-methyl-7-oxo-7,8-dihydropyrido[2,3-d]pyrimidin-2-yl)amino)pyridin-3-yl)piperazin-1-yl)acetamido)cyclohexyl)methyl)amino)-N-(1,5-dimethyl-1H-pyrazol-3-yl)-6-(methylamino)nicotinamide]?
**A.** inhibition at 0.04 µM: < 30%; inhibition at 0.2 µM: 50 to 80%

**Q.** Which results are given for `CNc1ccc(C(=O)Nc2ccc(C#N)c(C3CC3)n2)c(NC2CC3(CC(NC(=O)CN4CCN(c5ccc(Nc6ncc7c(C)c(C(C)=O)c(=O)n(C8CCCC8)c7n6)nc5)CC4)C3)C2)n1` (stereo not drawn) [CPD-132, 2-((6-(2-(4-(6-((6-Acetyl-8-cyclopentyl-5-methyl-7-oxo-7,8-dihydropyrido[2,3-d]pyrimidin-2-yl)amino)pyridin-3-yl)piperazin-1-yl)acetamido)spiro[3.3]heptan-2-yl)amino)-N-(5-cyano-6-cyclopropylpyridin-2-yl)-6-(methylamino)nicotinamide]?
**A.** inhibition at 0.04 µM: < 30%; inhibition at 0.2 µM: 50 to 80%

**Q.** Which results are given for `CNc1ccc(C(=O)Nc2ccc(N(C)C)nn2)c(NC2CC3(C2)CN(C(=O)N2CCN(c4ccc(Nc5ncc6c(C)c(C(C)=O)c(=O)n(C7CCCC7)c6n5)nc4)CC2)C3)n1` [CPD-133, 2-((2-(4-(6-((6-Acetyl-8-cyclopentyl-5-methyl-7-oxo-7,8-dihydropyrido[2,3-d]pyrimidin-2-yl)amino)pyridin-3-yl)piperazine-1-carbonyl)-2-azaspiro[3.3]heptan-6-yl)amino)-N-(6-(dimethylamino)pyridazin-3-yl)-6-(methylamino)nicotinamide]?
**A.** inhibition at 0.04 µM: 30 to 50%; inhibition at 0.2 µM: 50 to 80%

**Q.** Which inhibition at 0.04 µM does the source give for `CNc1ccc(C(=O)Nc2ccc(N(C)C)nn2)c(NC2CC3(CC(NC(=O)N4CCN(c5ccc(Nc6ncc7c(C)c(C(C)=O)c(=O)n(C8CCCC8)c7n6)nc5)CC4)C3)C2)n1` (stereo not drawn) [CPD-134, 4-(6-((6-Acetyl-8-cyclopentyl-5-methyl-7-oxo-7,8-dihydropyrido[2,3-d]pyrimidin-2-yl)amino)pyridin-3-yl)-N-(6-((3-((6-(dimethylamino)pyridazin-3-yl)carbamoyl)-6-(methylamino)pyridin-2-yl)amino)spiro[3.3]heptan-2-yl)piperazine-1-carboxamide] here?
**A.** Its inhibition at 0.04 µM is under 30%.

**Q.** What about the inhibition at 0.2 µM of the same compound?
**A.** Its inhibition at 0.2 µM is 30 to 50%.

**Q.** `CNc1ccc(C(=O)Nc2ccccn2)c(NC2CC3(CC(NC(=O)CN4CCN(c5ccc(Nc6ncc7c(C)c(C(C)=O)c(=O)n(C8CCCC8)c7n6)nc5)CC4)C3)C2)n1` (stereo not drawn) [CPD-137, 2-((6-(2-(4-(6-((6-Acetyl-8-cyclopentyl-5-methyl-7-oxo-7,8-dihydropyrido[2,3-d]pyrimidin-2-yl)amino)pyridin-3-yl)piperazin-1-yl)acetamido)spiro[3.3]heptan-2-yl)amino)-6-(methylamino)-N-(pyridin-2-yl)nicotinamide] was tested. Which inhibition at 0.04 µM did it give?
**A.** Its inhibition at 0.04 µM is 30 to 50%.

**Q.** And the inhibition at 0.2 µM?
**A.** The inhibition at 0.2 µM was 30 to 50%.

**Q.** Which inhibition at 0.04 µM does the source give for `CC(=O)c1c(C)c2cnc(Nc3ccc(N4CCN(CC(=O)NC5CC6(C5)CC(Nc5nc(C7CC7)ccc5C(=O)Nc5cccc(C7CC7)n5)C6)CC4)cn3)nc2n(C2CCCC2)c1=O` (stereo not drawn) [CPD-138, 2-((6-(2-(4-(6-((6-Acetyl-8-cyclopentyl-5-methyl-7-oxo-7,8-dihydropyrido[2,3-d]pyrimidin-2-yl)amino)pyridin-3-yl)piperazin-1-yl)acetamido)spiro[3.3]heptan-2-yl)amino)-6-cyclopropyl-N-(6-cyclopropylpyridin-2-yl)nicotinamide] here?
**A.** The inhibition at 0.04 µM was under 30%.

**Q.** And the inhibition at 0.2 µM?
**A.** Its inhibition at 0.2 µM is 30 to 50%.

**Q.** How did the inhibition at 0.04 µM turn out when `CNc1ccc(C(=O)Nc2ccc(N(C)C)nn2)c(NC2CC3(C2)CC(C(=O)N2CCN(c4ccc(Nc5ncc6c(C)c(C(C)=O)c(=O)n(C7CCCC7)c6n5)nc4)CC2)C3)n1` (stereo not drawn) [CPD-140, 2-((6-(4-(6-((6-Acetyl-8-cyclopentyl-5-methyl-7-oxo-7,8-dihydropyrido[2,3-d]pyrimidin-2-yl)amino)pyridin-3-yl)piperazine-1-carbonyl)spiro[3.3]heptan-2-yl)amino)-N-(6-(dimethylamino)pyridazin-3-yl)-6-(methylamino)nicotinamide] was run?
**A.** Its inhibition at 0.04 µM is under 30%.

**Q.** And the inhibition at 0.2 µM?
**A.** The inhibition at 0.2 µM was 50 to 80%.

**Q.** For `CC(=O)c1c(C)c2cnc(Nc3ccc(N4CCN(CC(=O)NC5CC6(C5)CC(Nc5nc(C#N)ccc5C(=O)Nc5cccc(C7CC7)n5)C6)CC4)cn3)nc2n(C2CCCC2)c1=O` (stereo not drawn) [CPD-141, 2-((6-(2-(4-(6-((6-Acetyl-8-cyclopentyl-5-methyl-7-oxo-7,8-dihydropyrido[2,3-d]pyrimidin-2-yl)amino)pyridin-3-yl)piperazin-1-yl)acetamido)spiro[3.3]heptan-2-yl)amino)-6-cyano-N-(6-cyclopropylpyridin-2-yl)nicotinamide], which inhibition at 0.04 µM is on record?
**A.** The inhibition at 0.04 µM was under 30%.

**Q.** And the inhibition at 0.2 µM?
**A.** The inhibition at 0.2 µM was under 30%.

**Q.** Which inhibition at 0.04 µM does the source give for `CC(=O)c1c(C)c2cnc(Nc3ccc(N4CCN(CC(=O)NCCCCCCCNc5nc(-c6ccc(C#N)nc6)ccc5C(=O)Nc5nc(C)c(C)s5)CC4)cn3)nc2n(C2CCCC2)c1=O` [CPD-142] here?
**A.** The inhibition at 0.04 µM was under 30%.

**Q.** How did the inhibition at 0.04 µM turn out when `CNc1ccc(C(=O)Nc2ccc(N(C)C)nn2)c(NCC2CCN(C(=O)CN3CCN(c4ccc(Nc5ncc6c(C)c(C(C)=O)c(=O)n(C7CCCC7)c6n5)nc4)CC3)CC2)n1` [CPD-145, 2-(((1-(2-(4-(6-((6-acetyl-8-cyclopentyl-5-methyl-7-oxo-7,8-dihydropyrido[2,3-d]pyrimidin-2-yl)amino)pyridin-3-yl)piperazin-1-yl)acetyl)piperidin-4-yl)methyl)amino)-N-(6-(dimethylamino)pyridazin-3-yl)-6-(methylamino)nicotinamide] was run?
**A.** Its inhibition at 0.04 µM is under 30%.

**Q.** What about the inhibition at 0.2 µM of the same compound?
**A.** The inhibition at 0.2 µM was 50 to 80%.

**Q.** What does the source list for `CNc1ccc(C(=O)Nc2ccc(N(C)C)nn2)c(NC2CC3(CC(CC(=O)N4CCN(c5ccc(Nc6ncc7c(C)c(C(C)=O)c(=O)n(C8CCCC8)c7n6)nc5)CC4)C3)C2)n1` (stereo not drawn) [CPD-147, 2-((6-(2-(4-(6-((6-acetyl-8-cyclopentyl-5-methyl-7-oxo-7,8-dihydropyrido[2,3-d]pyrimidin-2-yl)amino)pyridin-3-yl)piperazin-1-yl)-2-oxoethyl)spiro[3.3]heptan-2-yl)amino)-N-(6-(dimethylamino)pyridazin-3-yl)-6-(methylamino)nicotinamide]?
**A.** inhibition at 0.04 µM: 30 to 50%; inhibition at 0.2 µM: 50 to 80%
